According to PubChem BioAssay (NCI):
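Results reflect a 48-hour exposure of cells in 96-well plates to compound at five concentrations. The concentration for full growth arrest is given as TGI.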

How the values were obtained:
Assay in all cases: NCI tumour cell line growth inhibition, 48 h
[1] = system: HOP-62 NSCLC
[2] = system: SR leukemia
[3] = system: 786-0 renal
[4] = system: ACHN renal
[5] = system: SK-MEL-2 melanoma
[6] = system: A498 renal
[7] = system: PC-3 prostate
[8] = system: NCI-H23 lung
[9] = system: UO-31 renal
[10] = system: M14 melanoma
[11] = system: SF-295 CNS
[12] = system: A549 NSCLC
[13] = system: EKVX NSCLC
[14] = system: U251 CNS
[15] = system: IGROV1 ovarian
[16] = system: COLO 205 colon
[17] = system: SF-268 CNS
[18] = system: SK-OV-3 ovarian

Row | SMILES | TGI [1] | TGI [2] | TGI [3] | TGI [4] | TGI [5] | TGI [6] | TGI [7] | TGI [8] | TGI [9] | TGI [10] | TGI [11] | TGI [12] | TGI [13] | TGI [14] | TGI [15] | TGI [16] | TGI [17] | TGI [18]
1 | Nc1ncnc2c1ncn2[C@@H]1C[C@H]1CO | > 100 µM | > 100 µM | > 100 µM | > 100 µM | > 100 µM | > 100 µM | > 100 µM | > 100 µM | > 100 µM | > 100 µM | > 100 µM | > 100 µM | > 100 µM | > 100 µM | – | – | – | –
2 | CC(C)=CCC/C(C)=C/CC/C(C)=C/CC/C=C(\C)CC/C=C(\C)CCC1SC1(C)C (stereo unspecified) | > 100 µM | – | > 100 µM | > 100 µM | > 100 µM | > 100 µM | – | > 100 µM | > 100 µM | > 100 µM | > 100 µM | > 100 µM | > 100 µM | > 100 µM | > 100 µM | > 100 µM | > 100 µM | > 100 µM
3 | CNc1nnnn1C1OC(CO)C(O)C1O (stereo unspecified) | > 100 µM | – | > 100 µM | > 100 µM | > 100 µM | > 100 µM | – | – | > 100 µM | > 100 µM | > 100 µM | > 100 µM | > 100 µM | > 100 µM | > 100 µM | > 100 µM | > 100 µM | > 100 µM
4 | Cc1ccccc1N=Cc1ccc(N(CCC#N)S(=O)(=O)c2ccccc2)cc1 | > 100 µM | > 100 µM | > 100 µM | > 100 µM | > 100 µM | > 100 µM | – | > 100 µM | > 100 µM | > 100 µM | > 100 µM | > 100 µM | > 100 µM | > 100 µM | > 100 µM | > 100 µM | > 100 µM | > 100 µM
5 | CSC(=NC1CC(n2cc(C)c(=O)[nH]c2=O)OC1CO)NC#N (stereo unspecified) | > 100 µM | – | > 100 µM | > 100 µM | > 100 µM | > 100 µM | > 100 µM | > 100 µM | > 100 µM | > 100 µM | > 100 µM | > 100 µM | > 100 µM | > 100 µM | > 100 µM | > 100 µM | > 100 µM | > 100 µM
6 | OC(c1ccsc1)c1cc2ccccc2s1 (stereo unspecified) | > 10 µM | > 10 µM | > 10 µM | > 10 µM | > 10 µM | – | > 10 µM | > 10 µM | > 10 µM | > 10 µM | > 10 µM | > 10 µM | > 10 µM | > 10 µM | > 10 µM | > 10 µM | > 10 µM | > 10 µM
7 | C=CC1(c2ccc3ccccc3c2)OCC(CC)(CC)CO1 | 84.4 µM | – | 50.9 µM | 38.8 µM | 34.7 µM | – | 65.5 µM | 49.3 µM | 86.1 µM | 60.6 µM | 65.2 µM | > 100 µM | – | 42 µM | 52.3 µM | 31.8 µM | 95.6 µM | > 100 µM
8 | Cc1cc(=O)oc2c(CNC(C)C(=O)O)c(O)ccc12 (stereo unspecified) | > 100 µM | > 100 µM | > 100 µM | > 100 µM | > 100 µM | – | > 100 µM | > 100 µM | > 100 µM | > 100 µM | > 100 µM | > 100 µM | > 100 µM | > 100 µM | > 100 µM | > 100 µM | > 100 µM | > 100 µM
9 | Cc1ccc(S(=O)(=O)c2c(N)c3nccn3c3nc4ccccc4nc23)cc1 | > 100 µM | > 100 µM | > 100 µM | > 100 µM | > 100 µM | – | – | > 100 µM | > 100 µM | > 100 µM | – | > 100 µM | > 100 µM | > 100 µM | > 100 µM | > 100 µM | > 100 µM | > 100 µM
10 | CC1=C2C(=O)C3[C@@H](CCC4=CC(=O)CC[C@@]43C)C2CC[C@]12O[C@@H]1C[C@H](C)CN[C@H]1[C@H]2C (stereo partly specified) | 68.2 µM | 43.4 µM | > 100 µM | > 100 µM | 63.2 µM | > 100 µM | – | > 100 µM | > 100 µM | > 100 µM | > 100 µM | > 100 µM | > 100 µM | 51.5 µM | > 100 µM | > 100 µM | > 100 µM | > 100 µM
11 | Cc1ccc(C2(C)NC(=S)N(NC(N)=S)C2=S)cc1 (stereo unspecified) | > 100 µM | > 100 µM | > 100 µM | > 100 µM | > 100 µM | > 100 µM | – | > 100 µM | > 100 µM | > 100 µM | > 100 µM | > 100 µM | > 100 µM | > 100 µM | > 100 µM | > 100 µM | > 100 µM | –
12 | CN(C)C1(C(=O)O)CC1 | > 100 µM | > 100 µM | > 100 µM | > 100 µM | – | > 100 µM | > 100 µM | > 100 µM | – | > 100 µM | > 100 µM | > 100 µM | > 100 µM | > 100 µM | > 100 µM | – | > 100 µM | –
13 | Cc1ccc(S(=O)(=O)NC(=O)C2(Br)S(=O)(=O)OCCOS2(=O)=O)cc1 | > 100 µM | > 100 µM | > 100 µM | > 100 µM | > 100 µM | > 100 µM | – | > 100 µM | > 100 µM | > 100 µM | – | > 100 µM | > 100 µM | > 100 µM | > 100 µM | > 100 µM | > 100 µM | > 100 µM
